# Reference: paper PMC5218480 (PLoS ONE, 2017)
# Test system: MV-4-11 cells
# Test: Gene expression microarray analysis (Affymetrix PrimeView) and GSEA
# Assay type: cell-based, human
# Design: RFU PODN (11730768_x_at) / Fold change /veh PODN (11730768_x_at) / RFU LINC00158 (11744669_a_at) / Fold change /veh LINC00158 (11744669_a_at) / RFU DUSP10 (11751237_a_at) / Fold change /veh DUSP10 (11751237_a_at) / RFU ID3 (11757404_x_at) / Fold change /veh ID3 (11757404_x_at) / RFU PLEKHG5 (11737974_s_at) / Fold change /veh PLEKHG5 (11737974_s_at) / RFU LRRC4B (11730491_at) / Fold change /veh LRRC4B (11730491_at) / RFU GIMAP4 (11747438_a_at) / Fold change /veh GIMAP4 (11747438_a_at) / RFU KRT8 (11758183_x_at) / Fold change /veh KRT8 (11758183_x_at) / RFU CNN1 (11734310_a_at) / Fold change /veh CNN1 (11734310_a_at) / RFU VPS37D (11726825_at) / Fold change /veh VPS37D (11726825_at) / RFU C10orf10 (11716522_x_at) / Fold change /veh C10orf10 (11716522_x_at) / RFU KIR2DL2 /// KIR2DL4 /// KIR2DL5A /// KIR2DL5B /// KIR2DS1 /// KIR2DS2 /// KIR2DS3 /// KIR2DS4 /// KIR3DL3 /// KIR3DL3 /// KIR3DS1 (11738374_at) / Fold change /veh KIR2DL2 /// KIR2DL4 /// KIR2DL5A /// KIR2DL5B /// KIR2DS1 /// KIR2DS2 /// KIR2DS3 /// KIR2DS4 /// KIR3DL3 /// KIR3DL3 /// KIR3DS1 (11738374_at) / RFU C1QL1 (11718748_at) / Fold change /veh C1QL1 (11718748_at) / RFU TMPRSS4 (11747572_a_at) / Fold change /veh TMPRSS4 (11747572_a_at) / RFU HAMP (11756126_x_at) / Fold change /veh HAMP (11756126_x_at) / RFU RNFT2 (11725882_a_at) / Fold change /veh RNFT2 (11725882_a_at) / RFU NR4A2 (11747474_a_at) / Fold change /veh NR4A2 (11747474_a_at) / RFU ABCC12 (11746883_a_at) / Fold change /veh ABCC12 (11746883_a_at) / RFU TMEM136 (11760407_x_at) / Fold change /veh TMEM136 (11760407_x_at) / RFU CLDN22 /// WWC2 (11732394_at) / Fold change /veh CLDN22 /// WWC2 (11732394_at) / RFU HLA-DPB1 (11760878_x_at) / Fold change /veh HLA-DPB1 (11760878_x_at) / RFU SPINT1 (11716480_a_at) / Fold change /veh SPINT1 (11716480_a_at) / RFU GAP43 (11754022_s_at) / Fold change /veh GAP43 (11754022_s_at) / RFU A4GNT (11735810_at) / Fold change /veh A4GNT (11735810_at) / RFU PRB3 (11715151_x_at) / Fold change /veh PRB3 (11715151_x_at) / RFU TUBB4B (11761932_at) / Fold change /veh TUBB4B (11761932_at) / RFU CAPN14 (11732068_a_at) / Fold change /veh CAPN14 (11732068_a_at) / RFU TMCC2 (11721928_a_at) / Fold change /veh TMCC2 (11721928_a_at) / RFU IRGQ (11745062_a_at) / Fold change /veh IRGQ (11745062_a_at) / RFU FAM174B (11720279_a_at) / Fold change /veh FAM174B (11720279_a_at) / RFU TMPRSS4 (11748680_a_at) / Fold change /veh TMPRSS4 (11748680_a_at) / RFU FAM212B (11763350_a_at) / Fold change /veh FAM212B (11763350_a_at) / RFU PLEKHG5 (11743358_a_at) / Fold change /veh PLEKHG5 (11743358_a_at) / RFU ZSCAN30 (11745921_a_at) / Fold change /veh ZSCAN30 (11745921_a_at) / RFU CMKLR1 (11741424_a_at) / Fold change /veh CMKLR1 (11741424_a_at) / RFU LOC101060620 /// MAPK8IP1 (11723275_at) / Fold change /veh LOC101060620 /// MAPK8IP1 (11723275_at) / RFU SPTSSB (11747773_x_at) / Fold change /veh SPTSSB (11747773_x_at) / RFU PRSS12 (11739890_at) / Fold change /veh PRSS12 (11739890_at) / RFU BIN1 (11741810_x_at) / Fold change /veh BIN1 (11741810_x_at) / RFU WNT11 (11732464_a_at) / Fold change /veh WNT11 (11732464_a_at) / RFU C10orf10 (11716521_a_at) / Fold change /veh C10orf10 (11716521_a_at) / RFU C5orf56 (11738089_at) / Fold change /veh C5orf56 (11738089_at) / RFU CYB561 (11721691_x_at) / Fold change /veh CYB561 (11721691_x_at) / RFU ANKRD19P (11752326_a_at) / Fold change /veh ANKRD19P (11752326_a_at) / RFU OR2T12 /// OR2T33 /// OR2T8 (11738714_s_at) / Fold change /veh OR2T12 /// OR2T33 /// OR2T8 (11738714_s_at) / RFU VCAN (11748164_a_at) / Fold change /veh VCAN (11748164_a_at) / RFU JSRP1 (11732532_at) / Fold change /veh JSRP1 (11732532_at) / RFU KRTAP10-11 (11738290_x_at) / Fold change /veh KRTAP10-11 (11738290_x_at) / RFU MYO3A (11730013_a_at) / Fold change /veh MYO3A (11730013_a_at) / RFU EBF3 (11725865_a_at) / Fold change /veh EBF3 (11725865_a_at) / RFU CAMK2N1 (11719241_x_at) / Fold change /veh CAMK2N1 (11719241_x_at) / RFU C5orf56 (11738088_a_at) / Fold change /veh C5orf56 (11738088_a_at) / RFU OLFML3 (11715873_a_at) / Fold change /veh OLFML3 (11715873_a_at) / RFU LOC100653217 /// NTM (11731650_a_at) / Fold change /veh LOC100653217 /// NTM (11731650_a_at) / RFU MAPK11 (11762145_a_at) / Fold change /veh MAPK11 (11762145_a_at) / RFU FIZ1 (11724087_x_at) / Fold change /veh FIZ1 (11724087_x_at) / RFU OASL (11726364_x_at) / Fold change /veh OASL (11726364_x_at) / RFU SOX15 (11748057_x_at) / Fold change /veh SOX15 (11748057_x_at) / RFU CD79A (11719716_a_at) / Fold change /veh CD79A (11719716_a_at) / RFU HIST1H1D (11736915_at) / Fold change /veh HIST1H1D (11736915_at) / RFU CASKIN2 (11723855_a_at) / Fold change /veh CASKIN2 (11723855_a_at) / RFU LOC730098 (11760151_x_at) / Fold change /veh LOC730098 (11760151_x_at) / RFU OR4N2 (11742367_at) / Fold change /veh OR4N2 (11742367_at) / RFU PRRT2 (11749266_a_at) / Fold change /veh PRRT2 (11749266_a_at) / RFU SNX32 (11753110_a_at) / Fold change /veh SNX32 (11753110_a_at) / RFU CDHR5 (11726645_a_at) / Fold change /veh CDHR5 (11726645_a_at) / RFU RCAN1 (11760418_a_at) / Fold change /veh RCAN1 (11760418_a_at) / RFU FAM167A (11723789_a_at) / Fold change /veh FAM167A (11723789_a_at) / RFU FAM26E (11764081_at) / Fold change /veh FAM26E (11764081_at) / RFU ISYNA1 (11749810_s_at) / Fold change /veh ISYNA1 (11749810_s_at) / RFU ACY1 (11761880_at) / Fold change /veh ACY1 (11761880_at) / RFU 11764098_at / Fold change /veh 11764098_at / RFU SAMD14 (11745864_x_at) / Fold change /veh SAMD14 (11745864_x_at) / RFU NPB (11741838_a_at) / Fold change /veh NPB (11741838_a_at) / RFU TMPRSS6 (11731388_a_at) / Fold change /veh TMPRSS6 (11731388_a_at) / RFU KRTAP10-2 (11738614_at) / Fold change /veh KRTAP10-2 (11738614_at) / RFU ARHGAP8 /// PRR5-ARHGAP8 (11727945_x_at) / Fold change /veh ARHGAP8 /// PRR5-ARHGAP8 (11727945_x_at) / RFU KRTAP5-7 /// NADSYN1 (11734609_at) / Fold change /veh KRTAP5-7 /// NADSYN1 (11734609_at) / RFU RASL12 (11751679_a_at) / Fold change /veh RASL12 (11751679_a_at) / RFU CDKN2B (11736163_a_at) / Fold change /veh CDKN2B (11736163_a_at) / RFU PRF1 (11729649_at) / Fold change /veh PRF1 (11729649_at) / RFU, ZNF638 /// ZNF638-IT1 / Fold change vs veh, ZNF638 /// ZNF638-IT1 / RFU, PANK3 / Fold change vs veh, PANK3 / RFU, SH3YL1 / Fold change vs veh, SH3YL1 / RFU, ZEB2 / Fold change vs veh, ZEB2 / RFU, NRIP1 / Fold change vs veh, NRIP1 / RFU, PTTG1IP / Fold change vs veh, PTTG1IP / RFU, CAPN2 / Fold change vs veh, CAPN2 / RFU, MED14 / Fold change vs veh, MED14 / RFU, SNORA58 / Fold change vs veh, SNORA58 / RFU, C1orf63 / Fold change vs veh, C1orf63 / RFU, LRRFIP1 / Fold change vs veh, LRRFIP1 / RFU, NDUFAF7 / Fold change vs veh, NDUFAF7 / RFU, SLC12A2 / Fold change vs veh, SLC12A2 / RFU, IBTK / Fold change vs veh, IBTK / RFU, ESF1 / Fold change vs veh, ESF1 / Fold change vs veh, TMEM50B / RFU, TAOK1 / Fold change vs veh, TAOK1 / RFU, ACBD3 / Fold change vs veh, ACBD3 / RFU, TMA16 / Fold change vs veh, TMA16 / RFU, RWDD3 / Fold change vs veh, RWDD3 / RFU, BCAT1 / Fold change vs veh, BCAT1 / RFU, EDEM3 / Fold change vs veh, EDEM3 / RFU, TMEM33 / Fold change vs veh, TMEM33 / RFU, WDR75 / Fold change vs veh, WDR75 / RFU, AHCTF1 / Fold change vs veh, AHCTF1 / RFU, TFRC / Fold change vs veh, TFRC / RFU, ZDHHC17 / Fold change vs veh, ZDHHC17 / RFU, NOM1 / Fold change vs veh, NOM1 / RFU, ARL8B / Fold change vs veh, ARL8B / RFU, ZBTB11 / Fold change vs veh, ZBTB11 / RFU, TAMM41 / Fold change vs veh, TAMM41 / RFU, KIAA1704 /// LOC100996395 / Fold change vs veh, KIAA1704 /// LOC100996395 / RFU, ING1 / Fold change vs veh, ING1 / RFU, TRMT61B / Fold change vs veh, TRMT61B / RFU, FUBP3 / Fold change vs veh, FUBP3 / RFU, TP53 / Fold change vs veh, TP53 / RFU, TNKS2 / Fold change vs veh, TNKS2 / RFU, ZFP14 / Fold change vs veh, ZFP14 / RFU, ACTR2 / Fold change vs veh, ACTR2 / RFU, PPP3R1 / Fold change vs veh, PPP3R1 / RFU, PIK3R1 / Fold change vs veh, PIK3R1 / RFU, HNRNPA1 / Fold change vs veh, HNRNPA1 / RFU, RNF170 / Fold change vs veh, RNF170 / RFU, ZNF28 / Fold change vs veh, ZNF28 / RFU, RNGTT / Fold change vs veh, RNGTT / RFU, OGT / Fold change vs veh, OGT / RFU, BRD1 / Fold change vs veh, BRD1 / RFU, MARS / Fold change vs veh, MARS / RFU, ZNF655 / Fold change vs veh, ZNF655 / RFU, FAHD1 / Fold change vs veh, FAHD1 / RFU, BDP1 / Fold change vs veh, BDP1 / RFU, LRRCC1 / Fold change vs veh, LRRCC1 / RFU, ARID1A / Fold change vs veh, ARID1A / RFU, ZNF146 / Fold change vs veh, ZNF146 / RFU, ZNF330 / Fold change vs veh, ZNF330 / RFU, GPN3 / Fold change vs veh, GPN3 / RFU, C9orf123 / Fold change vs veh, C9orf123 / RFU, N4BP2L2 / Fold change vs veh, N4BP2L2 / RFU, ARFIP1 / Fold change vs veh, ARFIP1 / RFU, FAM179B / Fold change vs veh, FAM179B / RFU, BCL10 / Fold change vs veh, BCL10 / RFU, UHRF1BP1L / Fold change vs veh, UHRF1BP1L / RFU, BET1 / Fold change vs veh, BET1 / RFU, CNOT2 / Fold change vs veh, CNOT2 / RFU, ZNF268 / Fold change vs veh, ZNF268 / Fold change vs veh, ZNF507 / RFU, DGCR2 / Fold change vs veh, DGCR2 / RFU, WDSUB1 / Fold change vs veh, WDSUB1 / Fold change vs veh, HSP90B1 /// MIR3652 / RFU, ADSS / Fold change vs veh, ADSS / RFU, GK / Fold change vs veh, GK / RFU, ZNF148 / Fold change vs veh, ZNF148 / RFU, TAF9 / Fold change vs veh, TAF9 / RFU, SLC1A5 / Fold change vs veh, SLC1A5 / RFU, SLMO2 / Fold change vs veh, SLMO2 / RFU, ABCC4 / Fold change vs veh, ABCC4 / RFU, LOC101060439 /// RAP1B / Fold change vs veh, LOC101060439 /// RAP1B / RFU, RFX7 / Fold change vs veh, RFX7 / RFU, GTPBP10 / Fold change vs veh, GTPBP10 / RFU, CNEP1R1 / Fold change vs veh, CNEP1R1 / RFU, BIVM-ERCC5 /// ERCC5 / Fold change vs veh, BIVM-ERCC5 /// ERCC5 / RFU, ILF3 / Fold change vs veh, ILF3 / RFU 11762660_at / Fold change /veh 11762660_at / RFU VCAN (11757783_s_at) / Fold change /veh VCAN (11757783_s_at) / RFU DDX43 (11728927_at) / Fold change /veh DDX43 (11728927_at) / RFU KRT8 (11758188_x_at) / Fold change /veh KRT8 (11758188_x_at) / RFU NKD1 (11759106_at) / Fold change /veh NKD1 (11759106_at) / RFU SRD5A1 (11742802_a_at) / Fold change /veh SRD5A1 (11742802_a_at) / RFU TPSAB1 /// TPSB2 (11721975_s_at) / Fold change /veh TPSAB1 /// TPSB2 (11721975_s_at) / RFU GSTM3 (11746129_a_at) / Fold change /veh GSTM3 (11746129_a_at) / RFU IL23R (11737362_x_at) / Fold change /veh IL23R (11737362_x_at) / RFU TMEM51 (11727254_a_at) / Fold change /veh TMEM51 (11727254_a_at) / RFU PIWIL2 (11732686_x_at) / Fold change /veh PIWIL2 (11732686_x_at) / RFU ORM1 (11744905_x_at) / Fold change /veh ORM1 (11744905_x_at) / RFU CCDC152 (11743942_at) / Fold change /veh CCDC152 (11743942_at) / RFU ECM1 (11717891_a_at) / Fold change /veh ECM1 (11717891_a_at) / RFU IL23R (11748794_a_at) / Fold change /veh IL23R (11748794_a_at) / RFU TNFAIP8L3 (11732012_x_at) / Fold change /veh TNFAIP8L3 (11732012_x_at) / RFU MBOAT4 (11741988_at) / Fold change /veh MBOAT4 (11741988_at) / RFU 11764193_at / Fold change /veh 11764193_at / RFU TMEM53 (11763286_at) / Fold change /veh TMEM53 (11763286_at) / RFU MAGEB2 (11727129_at) / Fold change /veh MAGEB2 (11727129_at) / RFU TMEM200A (11744735_a_at) / Fold change /veh TMEM200A (11744735_a_at) / RFU CCDC152 (11751479_a_at) / Fold change /veh CCDC152 (11751479_a_at) / RFU FAM211A (11726209_a_at) / Fold change /veh FAM211A (11726209_a_at) / RFU RGS16 (11746705_a_at) / Fold change /veh RGS16 (11746705_a_at) / RFU VCAN (11755009_s_at) / Fold change /veh VCAN (11755009_s_at) / RFU RHOB (11743442_s_at) / Fold change /veh RHOB (11743442_s_at) / RFU RGS16 (11720943_a_at) / Fold change /veh RGS16 (11720943_a_at) / RFU RGS16 (11720944_at) / Fold change /veh RGS16 (11720944_at) / RFU, VPS4B / Fold change vs veh, VPS4B / RFU, CREB1 / Fold change vs veh, CREB1 / RFU, DNAJC13 / Fold change vs veh, DNAJC13 / RFU, GNAQ / Fold change vs veh, GNAQ / RFU, CDK5R1 / Fold change vs veh, CDK5R1 / RFU, ZRANB3 / Fold change vs veh, ZRANB3 / RFU, CUL4A / Fold change vs veh, CUL4A / RFU, CCNY / Fold change vs veh, CCNY / RFU, UFL1 / Fold change vs veh, UFL1 / RFU, COG3 / Fold change vs veh, COG3 / RFU, DIAPH2 / Fold change vs veh, DIAPH2 / RFU, SKA2 / Fold change vs veh, SKA2 / RFU, AFF3 / Fold change vs veh, AFF3 / RFU, LMF1 / Fold change vs veh, LMF1 / RFU, IPO11 / Fold change vs veh, IPO11 / RFU, DFFB / Fold change vs veh, DFFB / RFU, FOXP1 / Fold change vs veh, FOXP1 / RFU, CARD8 / Fold change vs veh, CARD8 / RFU, STRN3 / Fold change vs veh, STRN3 / RFU, ADK / Fold change vs veh, ADK / RFU, RASSF2 / Fold change vs veh, RASSF2 / RFU, WIPF1 / Fold change vs veh, WIPF1 / RFU, LARP1B / Fold change vs veh, LARP1B / RFU, RASA1 / Fold change vs veh, RASA1 / RFU, RB1 / Fold change vs veh, RB1 / RFU, PPFIA1 / Fold change vs veh, PPFIA1 / RFU, MAT2A / Fold change vs veh, MAT2A / RFU, CCT5 / Fold change vs veh, CCT5 / RFU, WDR92 / Fold change vs veh, WDR92 / RFU, CUX1 / Fold change vs veh, CUX1 / RFU, TTC7A / Fold change vs veh, TTC7A / RFU, TMEM135 / Fold change vs veh, TMEM135 / RFU, DEPTOR / Fold change vs veh, DEPTOR / RFU, CPM / Fold change vs veh, CPM / RFU, DNAJB6 / Fold change vs veh, DNAJB6 / RFU, CACNA2D3 / Fold change vs veh, CACNA2D3 / RFU, DTX4 / Fold change vs veh, DTX4 / RFU, TFCP2 / Fold change vs veh, TFCP2 / RFU, GMCL1 /// GMCL1P1 / Fold change vs veh, GMCL1 /// GMCL1P1 / RFU, AEBP2 / Fold change vs veh, AEBP2 / RFU, SNHG1 /// SNORD22 /// SNORD25 /// SNORD26 /// SNORD27 /// SNORD28 /// SNORD29 /// SNORD31 / Fold change vs veh, SNHG1 /// SNORD22 /// SNORD25 /// SNORD26 /// SNORD27 /// SNORD28 /// SNORD29 /// SNORD31 / Fold change (Aza/veh), C12orf56 (ProbeSet 11735607_a_at) / Fold change (ACY-1035/veh), C12orf56 (ProbeSet 11735607_a_at) / Fold change (Aza/veh), FGFR1OP (ProbeSet 11751329_s_at) / Fold change (ACY-1035/veh), FGFR1OP (ProbeSet 11751329_s_at) / Fold change (Aza/veh), VPS36 (ProbeSet 11739960_a_at) / Fold change (ACY-1035/veh), VPS36 (ProbeSet 11739960_a_at) / RFU SYPL1 (11715823_x_at) / Fold change /veh SYPL1 (11715823_x_at) / RFU IGFBP7 (11715501_s_at) / Fold change /veh IGFBP7 (11715501_s_at) / RFU REEP3 (11722064_at) / Fold change /veh REEP3 (11722064_at) / RFU IGLL1 (11728026_x_at) / Fold change /veh IGLL1 (11728026_x_at): dose or concentration left out as unconfirmed
# Conditions: ProbeSet 11743286_at; LIST D
smiles,measurement,value
Nc1ccc(-c2cccs2)cc1NC(=O)c1ccc2c(c1)cc(C1CC1)n2CCN1CCOCC1 [ACY-1035],"Fold change vs veh, DTX4",0.97
